Laboratory results as given in publication PMC7780349 (Cell, 2020).
In brackets after ≈: the same amount, converted by molar mass. Like-named read-outs stand apart in the source and are kept apart here.

Columns and labels:
E. coli lptD4213 [1] = experiment: Membrane potential and permeability assay; settings: E. coli lptD4213, 15 min treatment
S. aureus MRSA USA300 [2] = experiment: Serial passaging assay to evolve resistance; assay type: cell-based, Staphylococcus aureus; settings: S. aureus MRSA USA300, 25 days, sub-lethal concentrations
[3] = system: S. aureus MRSA USA300 persister cells; experiment: S. aureus MRSA persister cell assay; assay type: cell-based, Staphylococcus aureus; settings: 2 h treatment
S. aureus MRSA USA300 [4] = experiment: Minimum inhibitory concentration assay
[5] = system: B. subtilis dfrA and folC CRISPRi knockdown mutants; assay type: cell-based; settings: growth (OD600) after 14 h relative to DMSO
HLF = assay type: cell-based
MRSA USA300 = experiment: Isolation of resistant mutants by plating on drug agar; assay type: cell-based, Staphylococcus aureus; settings: ~10^8 CFU on agar with 25 μg/mL SCH-79797 (4X MIC)
B. subtilis = experiment: Isolation of resistant mutants by plating; assay type: cell-based; settings: ~10^8 CFUs
P. aeruginosa = experiment: Minimum inhibitory concentration assay
[6] = molecular target: E. coli dihydrofolate reductase (FolA) (Escherichia coli, UniProt P0ABQ4); experiment: Dihydrofolate reductase activity assay; assay type: biochemical
B. subtilis 168 = experiment: Minimum inhibitory concentration assay; assay type: cell-based
HK-2 = assay type: cell-based
[7] = molecular target: dihydrofolate reductase (FolA) (Escherichia coli, UniProt P0ABQ4); experiment: Thermal proteome profiling; assay type: binding; settings: E. coli lptD4213 intact cells and cell lysates
E. cloacae = experiment: Minimum inhibitory concentration assay
E. coli lptD4213 ΔthyA = experiment: Growth of wild-type and ΔthyA cells with thymine; assay type: cell-based; settings: excess thymine in the medium
A. baumannii AB17978 [8] = experiment: Galleria mellonella killing assay; assay type: in vivo; settings: lethal dose of A. baumannii AB17978; 67 μg/larva; p < 0.001
[9] = system: folate metabolite pools in E. coli NCM3722; experiment: Metabolomics of folate metabolite pools; assay type: cell-based; settings: 13.9 μg/mL (1× MIC), 15 min
E. coli NCM3722 = experiment: Minimum inhibitory concentration assay; assay type: cell-based; settings: Escherichia coli
E. coli lptD4213 [10] = experiment: Colony forming units assay; assay type: cell-based; settings: E. coli lptD4213, 3-h treatment, 2× MIC
A. baumannii AB17978 [11] = experiment: Serial passaging assay to evolve resistance; assay type: cell-based, Acinetobacter baumannii
G. mellonella = experiment: Galleria mellonella host toxicity; assay type: in vivo; settings: injection at four times the MIC toward A. baumannii
[12] = animals; ref Gobbetti et al., 2012; Strande et al., 2007; cited from earlier work
HEK293 = assay type: cell-based
E. coli lptD4213 [13] = experiment: Minimum inhibitory concentration assay; settings: for MIC: concentration printed as 1× MIC
A. baumannii AB17978 [14] = experiment: Minimum inhibitory concentration assay
[15] = system: N. gonorrhoeae ATCC 700825; experiment: Neisseria gonorrhea vaginal infection model; assay type: in vivo, BALB/c mice; settings: 10 mg/kg i.v. at 2 and 14 h post-infection, CFUs at 26 h; p < 0.05 vs vehicle
[16] = Mouse liver microsomal stability; assay type: in vitro ADME; settings: 2 μM, 0.5 mg/mL microsomes, NADPH and UDPGA, 1 hour; compared to verapamil
N. gonorrhoeae = experiment: Minimum inhibitory concentration assay; settings: bacterial culture
[17] = Maximal tolerated dose in mice; assay type: in vivo; settings: intravenously
[18] = system: mammalian cells (HEK293, HK-2, HLF, PBMC)
PBMC = experiment: Mammalian cell cytotoxicity; assay type: cell-based; settings: 72 hours

E. coli dihydrofolate reductase (FolA), sequence (P0ABQ4 whole entry): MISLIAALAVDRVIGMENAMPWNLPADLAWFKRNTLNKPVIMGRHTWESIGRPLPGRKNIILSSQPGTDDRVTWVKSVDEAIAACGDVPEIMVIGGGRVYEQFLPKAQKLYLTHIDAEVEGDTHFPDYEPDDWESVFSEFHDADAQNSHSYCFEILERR
dihydrofolate reductase (FolA), sequence (P0ABQ4 whole entry): as above

Q: With nisin as the molecule, how does the “membrane potential and permeability (DiOC2(3) and TO-PRO-3 staining)” value (from here on “membrane potential and permeability”) (E. coli lptD4213 [1]) read?
A: The value was “expected shifts in both DiOC2(3) and TO-PRO-3 staining”.

Q: And the “resistance on serial passaging” value (S. aureus MRSA USA300 [2])?
A: The value was “resistance gradually increased”.

Q: With `N#CC(C#N)=NNc1cccc(Cl)c1` [CCCP] as the molecule, how does the “membrane potential and permeability” value (E. coli lptD4213 [1]) read?
A: Its value is “expected shifts in both DiOC2(3) and TO-PRO-3 staining”.

Q: What does the source list for `CO[C@@H]1[C@@H](OC(N)=O)[C@@H](O)[C@H](Oc2ccc3c(O)c(NC(=O)c4ccc(O)c(CC=C(C)C)c4)c(=O)oc3c2C)OC1(C)C` [novobiocin]?
A: membrane potential and permeability (DiOC2(3) and TO-PRO-3 staining) (E. coli lptD4213 [1]): do not shift DiOC2(3) or TO-PRO-3 staining; resistance on serial passaging (S. aureus MRSA USA300 [2]): resistance gradually increased

Q: For daptomycin, which “viability of persister cells (CFU)” value [3] is on record?
A: Its value is “did not reduce the number of CFUs”.

Q: Which MIC (S. aureus MRSA USA300 [4]; Staphylococcus aureus, MRSA|USA300) does the source give for `CC(C)c1ccc(Cn2ccc3c4c(N)nc(NC5CC5)nc4ccc32)cc1` [SCH-79797, N3-cyclopropyl-7-[[4-(1-methylethyl)phenyl]methyl]-7H-pyrrolo[3,2-f]quinazoline-1,3-diamine] here?
A: Its MIC is 6.3 µg/mL (≈ 17 µM).

Q: And the “sensitivity of dfrA and folC CRISPRi knockdowns” value [5]?
A: Its value is “sensitized”.

Q: And the “growth inhibition of mammalian cells relative to antibacterial dose” value (HLF)?
A: The value was “at doses comparable to the doses needed to kill bacteria”.

Q: And the “isolation of resistant mutants on plating” value (MRSA USA300)?
A: The value was “unable to isolate stable SCH-79797-resistant mutants”.

Q: And the “isolation of resistant mutants on plating” value (B. subtilis)?
A: The value was “unable to isolate SCH-79797-resistant mutants”.

Q: What about the MIC (P. aeruginosa) of the same molecule?
A: Its MIC is “greater the maximal drug concentrations tested”.

Q: What about the “membrane potential and permeability” value (E. coli lptD4213 [1]) of the same molecule?
A: Its value is “significant defects in both membrane polarization and permeability”.

Q: What about the IC50 [6] of the same molecule?
A: The IC50 was 8.6 ± 3 µM.

Q: What about the MIC (B. subtilis 168; Bacillus subtilis, 168) of the same molecule?
A: The MIC was 3.1 µg/mL (≈ 8.34 µM).

Q: And the “growth inhibition of mammalian cells relative to antibacterial dose” value (HK-2)?
A: The value was “at doses comparable to the doses needed to kill bacteria”.

Q: And the “thermal stability of dihydrofolate reductase (FolA)” value [7]?
A: Its value is “significantly shifted the thermal stability”.

Q: What about the “viability of persister cells (CFU)” value [3] of the same molecule?
A: The value was “robustly killed these persister cells”.

Q: What about the MIC (E. cloacae) of the same molecule?
A: The MIC was “greater the maximal drug concentrations tested”.

Q: What about the “sensitivity of ΔthyA versus wild-type cells” value (E. coli lptD4213 ΔthyA) of the same molecule?
A: The value was “no change in sensitivity”.

Q: What about the “survival of infected larvae” value (A. baumannii AB17978 [8]) of the same molecule?
A: Its value is “significantly prolonged the survival”.

Q: What about the “rise of 7,8-dihydrofolate (DHF) level compared to untreated cells” value [9] of the same molecule?
A: Its value is ~ 10 fold.

Q: What about the MIC (E. coli NCM3722) of the same molecule?
A: The MIC was 13.9 µg/mL (≈ 37.4 µM).

Q: And the “resistance on serial passaging” value (S. aureus MRSA USA300 [2])?
A: Its value is “no SCH-79797-resistant mutants emerged”.

Q: What about the “bactericidal activity (CFU)” value (E. coli lptD4213 [10]) of the same molecule?
A: The value was “potent and rapid bactericidal activity”.

Q: What about the “resistance on serial passaging” value (A. baumannii AB17978 [11]) of the same molecule?
A: Its value is “resistance remained constant”.

Q: What about the host toxicity (G. mellonella) of the same molecule?
A: The host toxicity was “did not result in higher host toxicity than the solvent-only control”.

Q: And the safely tolerated dose [12]?
A: Its safely tolerated dose is “at least 5 mg/kg”.

Q: What about the “growth inhibition of mammalian cells relative to antibacterial dose” value (HEK293) of the same molecule?
A: Its value is “at doses comparable to the doses needed to kill bacteria”.

Q: With `Nc1nc(N)c2c(ccc3[nH]ccc32)n1` [IRS-10] as the molecule, how does the “potency compared to the parent molecule SCH-79797” value (S. aureus MRSA USA300 [4]; MRSA USA300) read?
A: Its value is “decreased the potency”.

Q: What about the “sensitivity of dfrA and folC CRISPRi knockdowns” value [5] of the same molecule?
A: The value was “maintains the ability to inhibit folate metabolism”.

Q: And the “potency compared to the parent molecule SCH-79797” value (E. coli lptD4213 [13])?
A: Its value is “increased the potency”.

Q: What about the MIC (E. coli lptD4213 [13]) of the same molecule?
A: The MIC was 0.4 µg/mL (≈ 2.01 µM).

Q: What about the “potency compared to the parent molecule SCH-79797” value (A. baumannii AB17978 [14]) of the same molecule?
A: Its value is “decreased the potency”.

Q: And the “membrane potential and permeability” value (E. coli lptD4213 [1])?
A: The value was “does not disrupt membrane polarity or permeability”.

Q: And the IC50 ([6]; read-out: IC50 against FolA, 60 μM NADPH and 100 μM DHF, Hill fit)?
A: The IC50 was 0.065 ± 0.019 µM.

Q: What about the “potency compared to the parent molecule SCH-79797” value (B. subtilis 168; B. subtilis 168) of the same molecule?
A: Its value is “decreased the potency”.

Q: Which “vaginal load of N. gonorrhoeae (CFU)” value [15] does the source give for `Nc1nc(N)c2c(ccc3c2ccn3Cc2ccc(-c3ccccc3)cc2)n1` [IRS-16] here?
A: The value was “significantly reduced the vaginal load”.

Q: And the “stability in mouse liver microsomes” value [16]?
A: The value was “extremely stable”.

Q: What about the “sensitivity of dfrA and folC CRISPRi knockdowns” value [5] of the same molecule?
A: The value was “hypersensitive”.

Q: What about the MIC (E. coli lptD4213 [13]) of the same molecule?
A: The MIC was 0.02 µg/mL (≈ 0.0547 µM).

Q: And the “membrane potential and permeability” value (E. coli lptD4213 [1])?
A: The value was “disrupted membrane permeability and polarity”.

Q: And the adverse effects (male CD-1 mice, single i.v. dose 15 mg/kg)?
A: The adverse effects was “no adverse effects”.

Q: What about the “time at concentrations above the N. gonorrhoeae MIC” value (mice, 15 mg/kg i.v., MIC 0.03 μg/mL) of the same molecule?
A: Its value is about 48 h.

Q: What about the half-life (mouse, in vivo, iv, 15 mg/kg) of the same molecule?
A: Its half-life is 15.8 h.

Q: What about the MIC (N. gonorrhoeae) of the same molecule?
A: The MIC was 0.03 µg/mL (≈ 0.0821 µM).

Q: What about the “maximal tolerated dose (MTD)” value [17] of the same molecule?
A: Its value is 15 mg/kg.

Q: What about the “increase of therapeutic window relative to SCH-79797” value [18] of the same molecule?
A: Its value is over 100 fold.

Q: What about the “MIC against PBMC” value (PBMC) of the same molecule?
A: Its value is “greater than the maximal drug concentrations tested”.

Q: Which “sensitivity of dfrA and folC CRISPRi knockdowns” value [5] does the source give for `COc1cc(Cc2cnc(N)nc2N)cc(OC)c1OC` [trimethoprim] here?
A: The value was “hypersensitive”.

Q: And the “membrane potential and permeability” value (E. coli lptD4213 [1])?
A: Its value is “no significant changes in DiOC2(3) and TO-PRO-3 staining”.

Q: And the “sensitivity of ΔthyA versus wild-type cells” value (E. coli lptD4213 ΔthyA)?
A: The value was “led to trimethoprim resistance”.

Q: And the MIC (E. coli NCM3722)?
A: The MIC was 0.15 µg/mL (≈ 0.517 µM).

Q: With `CO[C@H]1/C=C/O[C@@]2(C)Oc3c(C)c(O)c4c(O)c(c(/C=N/N5CCN(C)CC5)c(O)c4c3C2=O)NC(=O)/C(C)=C\C=C\[C@H](C)[C@H](O)[C@@H](C)[C@@H](O)[C@@H](C)[C@H](OC(C)=O)[C@@H]1C` [rifampicin] as the molecule, how does the “membrane potential and permeability” value (E. coli lptD4213 [1]) read?
A: Its value is “do not shift DiOC2(3) or TO-PRO-3 staining”.

Q: With `CC(C)c1ccccc1` [isopropylbenzene] as the molecule, how does the “sensitivity of dfrA and folC CRISPRi knockdowns” value [5] read?
A: Its value is “no effect”.

Q: And the “membrane potential and permeability” value (E. coli lptD4213 [1])?
A: Its value is “disrupts both membrane polarity and permeability”.

Q: For polymyxin B, which “membrane potential and permeability” value (E. coli lptD4213 [1]) is on record?
A: The value was “expected shifts in both DiOC2(3) and TO-PRO-3 staining”.
